Our source for the IC50 and solubility values is publication PMC12814486 (Bioorganic & medicinal chemistry, 2025).

The IC50 is the midpoint of a concentration-inhibition curve. What is called solubility is the dissolved amount per volume that the medium holds.

In brackets after ≈: the same amount, converted by molar mass.

The target of one data set is T1, human FAAH (Homo sapiens, UniProt O00519).
T1 sequence (O00519 1-579): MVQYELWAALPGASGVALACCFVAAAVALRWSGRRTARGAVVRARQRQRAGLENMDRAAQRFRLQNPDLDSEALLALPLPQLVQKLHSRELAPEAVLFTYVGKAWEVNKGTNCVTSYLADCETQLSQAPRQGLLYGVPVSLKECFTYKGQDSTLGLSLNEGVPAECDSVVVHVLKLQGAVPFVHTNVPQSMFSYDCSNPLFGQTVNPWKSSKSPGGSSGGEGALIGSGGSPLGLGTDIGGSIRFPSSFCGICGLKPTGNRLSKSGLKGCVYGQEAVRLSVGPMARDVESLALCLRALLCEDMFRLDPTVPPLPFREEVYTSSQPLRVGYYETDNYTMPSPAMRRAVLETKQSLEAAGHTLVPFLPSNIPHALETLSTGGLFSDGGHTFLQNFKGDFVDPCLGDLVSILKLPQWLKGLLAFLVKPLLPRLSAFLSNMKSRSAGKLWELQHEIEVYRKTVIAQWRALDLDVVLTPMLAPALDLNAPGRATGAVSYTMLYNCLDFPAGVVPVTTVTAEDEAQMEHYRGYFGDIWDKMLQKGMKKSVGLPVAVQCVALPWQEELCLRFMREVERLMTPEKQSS
Nature of the data set: FAAH inhibition assay. The data set is classed as biochemical.

Another data set concerns the target T2, human sEH (Homo sapiens, UniProt P34913).
T2 sequence (P34913 1-555): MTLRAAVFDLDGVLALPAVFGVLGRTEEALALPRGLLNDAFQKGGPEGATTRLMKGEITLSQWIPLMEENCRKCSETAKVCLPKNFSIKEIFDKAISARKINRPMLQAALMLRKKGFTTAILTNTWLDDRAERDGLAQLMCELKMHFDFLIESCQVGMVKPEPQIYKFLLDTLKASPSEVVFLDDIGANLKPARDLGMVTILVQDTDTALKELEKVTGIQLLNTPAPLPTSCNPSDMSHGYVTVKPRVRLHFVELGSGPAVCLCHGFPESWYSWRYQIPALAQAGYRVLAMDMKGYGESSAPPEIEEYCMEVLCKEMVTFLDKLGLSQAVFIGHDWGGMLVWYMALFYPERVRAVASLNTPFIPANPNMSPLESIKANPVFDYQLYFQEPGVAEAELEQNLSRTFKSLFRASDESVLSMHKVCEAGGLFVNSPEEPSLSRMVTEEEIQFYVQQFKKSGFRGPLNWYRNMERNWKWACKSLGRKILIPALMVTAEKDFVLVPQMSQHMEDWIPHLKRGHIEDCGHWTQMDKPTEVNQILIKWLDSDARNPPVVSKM
Nature of the data set: sEH inhibition assay. Format: biochemical.

The target of another data set is T3, mouse sEH (Mus musculus, UniProt P34914).
T3 sequence (P34914 1-554): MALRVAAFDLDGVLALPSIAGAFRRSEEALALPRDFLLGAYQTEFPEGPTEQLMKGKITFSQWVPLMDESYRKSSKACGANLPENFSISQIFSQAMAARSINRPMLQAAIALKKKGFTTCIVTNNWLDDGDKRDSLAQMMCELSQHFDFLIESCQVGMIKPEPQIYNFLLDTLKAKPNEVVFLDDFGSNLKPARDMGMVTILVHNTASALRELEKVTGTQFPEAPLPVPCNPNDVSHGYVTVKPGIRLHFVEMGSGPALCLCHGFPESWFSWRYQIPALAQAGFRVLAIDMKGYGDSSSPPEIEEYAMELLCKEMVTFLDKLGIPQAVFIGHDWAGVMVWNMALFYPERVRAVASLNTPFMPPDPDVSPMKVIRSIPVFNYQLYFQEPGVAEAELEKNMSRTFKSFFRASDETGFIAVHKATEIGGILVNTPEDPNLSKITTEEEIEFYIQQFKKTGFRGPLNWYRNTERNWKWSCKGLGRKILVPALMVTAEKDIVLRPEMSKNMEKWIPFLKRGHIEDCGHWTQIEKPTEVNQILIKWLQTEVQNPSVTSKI
Nature of the data set: sEH inhibition assay. The data set is classed as biochemical.

For the next data set, the target named is T4, rat sEH (Rattus norvegicus, UniProt P80299).
T4 sequence (P80299 1-554): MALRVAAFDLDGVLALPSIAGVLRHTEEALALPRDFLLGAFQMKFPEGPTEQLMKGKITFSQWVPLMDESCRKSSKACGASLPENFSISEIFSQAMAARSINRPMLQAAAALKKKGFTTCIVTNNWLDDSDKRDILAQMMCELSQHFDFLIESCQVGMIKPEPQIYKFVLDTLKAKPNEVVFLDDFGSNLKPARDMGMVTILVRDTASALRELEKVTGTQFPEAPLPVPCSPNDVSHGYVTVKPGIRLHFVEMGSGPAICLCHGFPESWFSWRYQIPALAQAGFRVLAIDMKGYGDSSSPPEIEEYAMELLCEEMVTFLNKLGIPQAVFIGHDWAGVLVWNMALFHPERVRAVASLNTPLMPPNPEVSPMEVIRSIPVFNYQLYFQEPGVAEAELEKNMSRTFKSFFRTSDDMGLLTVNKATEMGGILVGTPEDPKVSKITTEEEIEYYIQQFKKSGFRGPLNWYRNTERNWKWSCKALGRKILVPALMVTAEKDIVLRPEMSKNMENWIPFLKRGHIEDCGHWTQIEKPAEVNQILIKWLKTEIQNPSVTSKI
Nature of the data set: sEH inhibition assay. The data set is classed as biochemical.

The nature of a further data set: Solubility assay. To be noted: sodium phosphate buffer, pH 7.4, aqueous buffer, kinetic from dmso stock. Format: physicochemical.

`O=C(Nc1ccc(-c2ncc(Cl)cn2)cc1)C1CCN(S(=O)(=O)c2ccccc2Cl)CC1` [Compound 4d, 1-((2-chlorophenyl)sulfonyl)-N-(4-(5-chloropyrimidin-2-yl)phenyl)piperidine-4-carboxamide]: the half-inhibitory concentration (IC50) turned out to be 460 nM against human FAAH, 89.4 nM at human sEH, 89 nM against mouse sEH and 82.3 nM against rat sEH. In the data set “Solubility assay”, this compound came in with a solubility of 31 to 63 µM (≈ 15.2 to 31 µg/mL).

Consider `O=C(Nc1ccc(-c2cncnc2)cc1)C1CCN(S(=O)(=O)c2ccccc2Cl)CC1` [Compound 4b, 1-((2-chlorophenyl)sulfonyl)-N-(4-(pyrimidin-5-yl)phenyl)piperidine-4-carboxamide], for which the IC50 against human FAAH amounted to 196 nM; against human sEH, 5.6 nM; against mouse sEH it was 904 nM; on rat sEH, 4.9 nM. The solubility in the data set “Solubility assay” was more than 63 µM.

As to `O=C(Nc1ccc(-c2nnnn2Cc2ccccc2)cc1)C1CCN(S(=O)(=O)c2ccccc2Cl)CC1` [Compound 4p, N-(4-(1-benzyl-1H-tetrazol-5-yl)phenyl)-1-((2-chlorophenyl)sulfonyl)piperidine-4-carboxamide], the concentration for half-maximal inhibition (IC50) was more than 10000 nM on human FAAH, 9.8 nM against human sEH, 106 nM against mouse sEH and 25.5 nM against rat sEH. For the same compound, the solubility in “Solubility assay” lay in the range of 31 to 63 µM (≈ 16.6 to 33.8 µg/mL).

`O=C(Nc1ccc(-c2ncc(F)cn2)cc1)C1CCN(S(=O)(=O)c2ccccc2Cl)CC1` [Compound 4c, 1-((2-chlorophenyl)sulfonyl)-N-(4-(5-fluoropyrimidin-2-yl)phenyl)piperidine-4-carboxamide]: the IC50 against human FAAH worked out at 290 nM; against human sEH, 23.4 nM; at mouse sEH it was 82.5 nM; on rat sEH, 47.7 nM. The solubility in “Solubility assay” lay within 31 to 63 µM (≈ 14.7 to 29.9 µg/mL).

Regarding `COc1cnc(-n2nnnc2-c2ccc(NC(=O)C3CCN(S(=O)(=O)c4ccccc4Cl)CC3)cc2)c(OC)n1` [Compound 4q, 1-((2-chlorophenyl)sulfonyl)-N-(4-(1-(3,5-dimethoxypyrazin-2-yl)-1H-tetrazol-5-yl)phenyl)piperidine-4-carboxamide], the IC50 against human FAAH is more than 10000 nM; at human sEH it was 213 nM; against mouse sEH it was 264 nM; at rat sEH, 305 nM. The solubility in the data set “Solubility assay” was in the range of 31 to 63 µM (≈ 18.1 to 36.9 µg/mL).

Regarding `O=C(Nc1ccc(-c2cnc(C(F)(F)F)nc2)cc1)C1CCN(S(=O)(=O)c2ccccc2Cl)CC1` [Compound 4k, 1-((2-chlorophenyl)sulfonyl)-N-(4-(2-(trifluoromethyl)pyrimidin-5-yl)phenyl)piperidine-4-carboxamide], the IC50 was 327 nM at human FAAH, 94.6 nM on human sEH, 1130 nM at mouse sEH and 134 nM on rat sEH. The solubility in “Solubility assay” fell in the range of 31 to 63 µM (≈ 16.3 to 33.1 µg/mL).

`Cc1cnc(-c2ccc(NC(=O)C3CCN(S(=O)(=O)c4ccccc4Cl)CC3)cc2)nc1` [Compound 4e, 1-((2-chlorophenyl)sulfonyl)-N-(4-(5-methylpyrimidin-2-yl)phenyl)piperidine-4-carboxamide]: the IC50 on human FAAH was 308 nM; on human sEH, 73.6 nM; at mouse sEH it was 79.8 nM; at rat sEH it was 73.9 nM. For the same compound, the solubility in the data set “Solubility assay” lay in the range of 31 to 63 µM (≈ 14.6 to 29.7 µg/mL).

Take `O=C(Nc1ccc(-c2cnc(F)nc2)cc1)C1CCN(S(=O)(=O)c2ccccc2Cl)CC1` [Compound 4g, 1-((2-chlorophenyl)sulfonyl)-N-(4-(2-fluoropyrimidin-5-yl)phenyl)piperidine-4-carboxamide]: the concentration for half-maximal inhibition (IC50) against human FAAH came out at 175 nM; on human sEH, 27.2 nM; on mouse sEH it was 161 nM; on rat sEH, 43.7 nM. Also, the solubility in “Solubility assay” was in the range of 31 to 63 µM (≈ 14.7 to 29.9 µg/mL).

On to `Cc1ncc(-c2ccc(NC(=O)C3CCN(S(=O)(=O)c4ccccc4Cl)CC3)cc2)cn1` [Compound 4i, 1-((2-chlorophenyl)sulfonyl)-N-(4-(2-methylpyrimidin-5-yl)phenyl)piperidine-4-carboxamide], for which the half-inhibitory concentration (IC50) amounted to 1240 nM on human FAAH, 5.6 nM against human sEH, 214 nM at mouse sEH and 12.1 nM at rat sEH. The same compound gave a solubility in “Solubility assay” of 31 to 63 µM (≈ 14.6 to 29.7 µg/mL).

On to `O=C(Nc1ccc(-c2nnn[nH]2)cc1)C1CCN(S(=O)(=O)c2ccccc2Cl)CC1` [Compound 4n, N-(4-(1H-tetrazol-5-yl)phenyl)-1-((2-chlorophenyl)sulfonyl)piperidine-4-carboxamide], for which the 50% inhibitory concentration (IC50) on human FAAH is more than 10000 nM; at human sEH, 232 nM; against mouse sEH, 202 nM; against rat sEH, 83.4 nM. For the same compound, in “Solubility assay”, the solubility was 31 to 63 µM (≈ 13.9 to 28.2 µg/mL).

On to `COc1ncc(-c2ccc(NC(=O)C3CCN(S(=O)(=O)c4ccccc4Cl)CC3)cc2)cn1` [Compound 4j, 1-((2-chlorophenyl)sulfonyl)-N-(4-(2-methoxypyrimidin-5-yl)phenyl)piperidine-4-carboxamide], for which the half-maximal inhibitory concentration (IC50) on human FAAH was 462 nM; against human sEH, 7.7 nM; against mouse sEH, 379 nM; against rat sEH it was 17.9 nM. The same compound showed a solubility in “Solubility assay” of 31 to 63 µM (≈ 15.1 to 30.7 µg/mL).

`NC(=O)c1cccc(-c2cccc(OC(=O)NC3CCCCC3)c2)c1` [URB597, reference compound] displayed a solubility in the data set “Solubility assay” of more than 63 µM.

Take `O=C(Nc1ccc(-c2nnnn2C2CC2)cc1)C1CCN(S(=O)(=O)c2ccccc2Cl)CC1` [Compound 4o, 1-((2-chlorophenyl)sulfonyl)-N-(4-(1-cyclopropyl-1H-tetrazol-5-yl)phenyl)piperidine-4-carboxamide]: the 50% inhibitory concentration (IC50) was more than 10000 nM at human FAAH, 22 nM against human sEH, 12.5 nM on mouse sEH and 29.6 nM at rat sEH. Also, in the data set “Solubility assay”, the solubility fell in the range of 31 to 63 µM (≈ 15.1 to 30.7 µg/mL).

Regarding `O=C(Nc1ccc(-c2cnc(Cl)nc2Cl)cc1)C1CCN(S(=O)(=O)c2ccccc2Cl)CC1` [Compound 4l, 1-((2-chlorophenyl)sulfonyl)-N-(4-(2,4-dichloropyrimidin-5-yl)phenyl)piperidine-4-carboxamide], the IC50 amounted to 2000 nM against human FAAH, 78.8 nM against human sEH, 40.4 nM against mouse sEH and 15.4 nM against rat sEH. For the same compound, in “Solubility assay”, the solubility fell in the range of 31 to 63 µM (≈ 16.3 to 33.1 µg/mL).

As for `COc1cnc(-c2ccc(NC(=O)C3CCN(S(=O)(=O)c4ccccc4Cl)CC3)cc2)nc1` [Compound 4f, 1-((2-chlorophenyl)sulfonyl)-N-(4-(5-methoxypyrimidin-2-yl)phenyl)piperidine-4-carboxamide], the IC50 against human FAAH stood at 181 nM; against human sEH it was 26.3 nM; against mouse sEH, 32.4 nM; against rat sEH it was 55.9 nM. This compound displayed a solubility in “Solubility assay” of 31 to 63 µM (≈ 15.1 to 30.7 µg/mL).
